The text below walks through data of patent US20200231607A1, “TRISUBSTITUTEDSILYLHETEROARYLOXYQUINOLINES AND ANALOGUES” (Bayer Aktiengesellschaft, priority 2017, published 2020).

The conditions of series [1]: HPLC, reversed-phase C 18, 40° C., 0.1% aqueous formic acid and acetonitrile, gradient 10% to 95% acetonitrile.
Description: temperature: 40° C.; mobile phases: 0.1% aqueous formic acid and acetonitrile; linear gradient from 10% acetonitrile to 95% acetonitrile;
Calibration was carried out using unbranched alkan-2-ones (comprising 3 to 16 carbon atoms) with known log P values (determination of the log P values by the retention times using linear interpolation between two successive alkanones). lambda-max-values were determined using UV-spectra from 200 nm to 400 nm and the peak values of the chromatographic signals.
Series [2] relates to Pyricularia oryzae. Nature of the series: microbe, parasite or virus in culture. The format is cell-based. The conditions noted are these: 120 h, read-out: efficacy (inhibition of fungal growth).
For series [3], the system named is Colletotrichum lindemuthianum. Nature of the series: In vitro cell test on Colletotrichum lindemuthianum. The format is cell-based. The conditions noted are these: 144 h, 20 ppm of active ingredient, 6 days incubation, liquid culture, spectrometric measurement of mycelium growth, read-out: efficacy (inhibition of fungal growth). The protocol:
(§1) Solvent: dimethyl sulfoxide Culture medium: 14.6 g anhydrous D-glucose (VWR), • 7.1 g mycological peptone (Oxoid), • 1.4 g granulated yeast extract (Merck), QSP 1 liter Inoculum: spore suspension The tested compounds were solubilized in dimethyl sulfoxide and the solution used to prepare the required range of concentrations. […] A spore suspension of Colletotrichum lindemuthianum was prepared and diluted to the desired spore density. The compounds were evaluated for their ability to inhibit spore germination and mycelium growth in liquid culture assay. The compounds were added in the desired concentration to the culture medium with spores. After 6 days incubation, fungi-toxicity of compounds was determined by spectrometric measurement of mycelium growth. Inhibition of fungal growth was determined by comparing the absorbance values in wells containing the tested compound with the absorbance in control wells without the tested compound.

Series [4] concerns Leptnosphaeria nodorum. Nature of the series: In vitro cell test on Leptnosphaeria nodorum. The format is cell-based. The conditions noted are these: 120 h; 20 ppm of active ingredient; 5 days incubation; liquid culture, spectrometric measurement of mycelium growth; read-out: efficacy (inhibition of fungal growth). The method, then:
as §1, with “of Leptnosphaeria nodorum” for “of Colletotrichum lindemuthianum”, “After 5” for “After 6”

In series [1], `C[Si](C)(C)c1cnccc1Oc1cnc2ccccc2n1` [I.01] gave a logP of 2.64. `C[Si](C)(C)c1cnccc1Oc1cnc2ccccc2c1` [I.02] yielded a logP in series [1] of 2.15. `C[Si](C)(C)c1c(Oc2cnc3ccccc3c2)ccnc1F` [I.03, 3-{[2-fluoro-3-(trimethylsilyl)pyridin-4-yl]oxy}quinoline] yielded a chromatographic logP in series [1] of 4.08. Besides, the inhibition at 20 ppm in series [2], in series [3] and in series [4] was 90 to 100% throughout. With `C[Si](C)(Cc1ccccc1)c1c(Oc2cnc3ccccc3c2)ccnc1F` [I.06, 3-({3-[benzyl(dimethyl)silyl]-2-fluoropyridin-4-yl}oxy)quinoline], the chromatographic logP in series [1] amounted to 4.78. The inhibition at 20 ppm fell in the range of 90 to 100% in series [2], 80 to 89% in series [3] and 80 to 89% in series [4]. As to `C[Si](C)(C)c1cnccc1Oc1cnc2c(F)cccc2n1` [I.15], in series [1], the logP was 2.75. As to `Cc1nc2c(F)c(F)ccc2nc1Oc1ccncc1[Si](C)(C)C` [I.18], the logP in series [1] amounted to 2.80. Consider `Cc1nc2c(F)c(F)ccc2nc1Oc1cnccc1[Si](C)(C)C` [I.19], for which the logP in series [1] is 3.94. Regarding `Cc1nc2ccccc2nc1Oc1ccncc1[Si](C)(C)C` [I.23], the logP in series [1] came to 2.49. In series [1], `Cc1nc2ccccc2n1Cc1sccc1[Si](C)(C)C` [I.24, 2-methyl-1-{[3-(trimethylsilyl)-2-thienyl]methyl}-1H-benzimidazole] had a chromatographic logP of 2.13. The inhibition at 20 ppm in series [2], in series [3] and in series [4] was 90 to 100% each time. The compound `C[Si](C)(C)c1sccc1Cn1cnc2ccccc21` [I.25] registered a logP in series [1] of 2.08.

Regarding `C[Si](C)(c1ccccc1)c1sccc1Cn1cnc2ccccc21` [I.26], the logP in series [1] is on record as 2.49. As for `Cc1nc2c(F)c(F)ccc2cc1Cc1sccc1[Si](C)(C)C` [I.28, 7,8-difluoro-2-methyl-3-{[3-(trimethylsilyl)-2-thienyl]methyl}-quinoline], in series [1], the chromatographic logP worked out at 5.25. Consider `Cc1nc2c(F)c(F)ccc2nc1Oc1cccnc1Br` [IIa.01, 2-[(2-bromopyridin-3-yl)oxy]-5,6-difluoro-3-methylquinoxaline], for which the chromatographic logP in series [1] was found to be 3.26. As to `Cc1nc2c(F)c(F)ccc2nc1Oc1cc(Cl)cnc1Br` [IIa.02, 2-[(2-bromo-5-chloropyridin-3-yl)oxy]-5,6-difluoro-3-methylquinoxaline], in series [1], the chromatographic logP worked out at 4.3.

`Fc1ccc2nc(Oc3cccnc3Br)cnc2c1F` [IIa.03, 2-[(2-bromopyridin-3-yl)oxy]-5,6-difluoroquinoxaline] showed a chromatographic logP in series [1] of 2.96. Take `Fc1cccc2cc(Nc3cccnc3Cl)cnc12` [IIa.04, N-(2-chloropyridin-3-yl)-8-fluoroquinolin-3-amine]: the chromatographic logP in series [1] was determined as 2.14. Regarding `Fc1nccc(Oc2cnc3ccccc3c2)c1Br` [IIb.01, 3-[(3-bromo-2-fluoropyridin-4-yl)oxy]quinoline], in series [1], the logP came to 2.92 and the chromatographic logP was 2.96. `Cc1nc2c(F)c(F)ccc2nc1Oc1cc(Cl)ncc1Br` [IIb.02, 2-[(5-bromo-2-chloropyridin-4-yl)oxy]-5,6-difluoro-3-methylquinoxaline] displayed a chromatographic logP in series [1] of 4.2. For the compound `Fc1ccc2nc(Oc3ccncc3Br)cnc2c1F` [IIb.03, 2-[(3-bromopyridin-4-yl)oxy]-5,6-difluoroquinoxaline], in series [1], the chromatographic logP is 1.81. On the same count and under the same terms, the result for `Clc1nccc(Nc2cnc3ccccc3c2)c1Br` [IIb.04, N-(3-bromo-2-chloropyridin-4-yl)quinolin-3-amine] reads 2.35. For the compound `COc1nccc(Oc2cc3ccc(F)c(F)c3nc2C)c1Br` [IIb.05, 3-[(3-bromo-2-methoxypyridin-4-yl)oxy]-7,8-difluoro-2-methylquinoline], the chromatographic logP in series [1] is 3.85. Still for that read-out and setting: the value for `Fc1nccc(Oc2cnc3c(F)cccc3c2)c1Br` [IIb.06, 3-[(3-bromo-2-fluoropyridin-4-yl)oxy]-8-fluoroquinoline] was 2.98. `Clc1nccc(Oc2cnc3ccccc3c2)c1Br` [IIb.07, 3-[(3-bromo-2-chloropyridin-4-yl)oxy]quinoline] registered a chromatographic logP in series [1] of 2.35.

In turn, `Fc1nccc(Nc2cnc3ccccc3c2)c1Br` [IIb.08, N-(3-bromo-2-fluoropyridin-4-yl)quinolin-3-amine] gave a chromatographic logP in series [1] of 2.25.

Compound `Cc1nc2c(F)c(F)ccc2cc1Oc1ccnc(C(F)(F)F)c1Br` [IIb.09, 3-{[3-bromo-2-(trifluoromethyl)pyridin-4-yl]oxy}-7,8-difluoro-2-methylquinoline] displayed a chromatographic logP in series [1] of 4.01. In turn, `Cc1nc2c(F)c(F)ccc2cc1Nc1ccnc(C(F)(F)F)c1Br` [IIb.10, N-[3-bromo-2-(trifluoromethyl)pyridin-4-yl]-7,8-difluoro-2-methylquinolin-3-amine] displayed a chromatographic logP in series [1] of 3.37. As for `Cc1nc2c(F)c(F)ccc2nc1Oc1cncc(Cl)c1Br` [IIc.01, 2-[(4-bromo-5-chloropyridin-3-yl)oxy]-5,6-difluoro-3-methylquinoxaline], the chromatographic logP in series [1] was determined as 4.06. `Cc1nc2ccccc2cc1Oc1cnccc1Br` [IIc.02, 3-[(4-bromopyridin-3-yl)oxy]-2-methylquinoline]: the chromatographic logP in series [1] worked out at 2.44.

The compound `Cc1nc2c(F)c(F)ccc2nc1Oc1cnccc1Br` [IIc.03, 2-[(4-bromopyridin-3-yl)oxy]-5,6-difluoro-3-methylquinoxaline] gave a chromatographic logP in series [1] of 3.19. The compound `Cc1nc2c(F)c(F)ccc2nc1Oc1ncc(Cl)cc1Br` [IId.01, 2-[(3-bromo-5-chloropyridin-2-yl)oxy]-5,6-difluoro-3-methylquinoxaline] returned a chromatographic logP in series [1] of 4.72. In series [1], `Cc1nc2c(F)c(F)ccc2cc1Nc1ncc(Cl)cc1Br` [IId.02, N-(3-bromo-5-chloropyridin-2-yl)-7,8-difluoro-2-methylquinolin-3-amine] came in with a chromatographic logP of 4.36.

Compound `Clc1ncnc(Oc2cnc3ccccc3c2)c1Br` [IIe.01, 3-[(5-bromo-6-chloropyrimidin-4-yl)oxy]quinoline] registered a chromatographic logP in series [1] of 3.09. In the case of `Cc1nc2c(F)c(F)ccc2cc1Oc1sccc1Br` [IIf.01, 3-[(3-bromo-2-thienyl)oxy]-7,8-difluoro-2-methylquinoline], the chromatographic logP in series [1] amounted to 4.23. Turning to `Clc1cc(Oc2cnc3ccccc3c2)ccn1` [VIIa.01, 3-[(2-chloropyridin-4-yl)oxy]quinoline], the chromatographic logP in series [1] worked out at 2.47.

`Cc1nc2ccccc2cc1Oc1ccnc(F)c1` [VIIa.02, 3-[(2-fluoropyridin-4-yl)oxy]-2-methylquinoline] gave a chromatographic logP in series [1] of 2.17. Take `Fc1cc(Oc2cnc3ccccc3c2)ccn1` [VIIa.03, 3-[(2-fluoropyridin-4-yl)oxy]quinoline]: the chromatographic logP in series [1] was 2.25.

Consider `Fc1cc(Oc2cnc3ccccc3c2)ncn1` [VIIb.01, 3-[(6-fluoropyrimidin-4-yl)oxy]quinoline], for which, in series [1], the chromatographic logP was 2.08.

The term logP denotes a log measure of how a compound divides between an organic and an aqueous phase. As usually defined, the chromatographic logP is lipophilicity estimated from chromatographic retention. Read a low chromatographic logP as a more hydrophilic compound. By inhibition is commonly meant the relative decrease from the control value, in per cent.
